From patent US20230108050A1, “CXCL8 (INTERLEUKIN-8) ACTIVITY INHIBITOR AND CORTICOSTEROID COMBINATION AND PHARMACEUTICAL COMPOSITION AND USE THEREOF” (Dompe' farmaceutici SpA, priority 2020, published 2023)

Legend:
Format in all cases: in vivo, BALB/c mice
[1] = tested on: Th17 glucocorticoid-insensitive asthma mouse model; experiment: Assessment of leukocyte content in the airways (BALF), Example 2a; conditions: DF2755A 10 mg/kg oral twice a day, dexamethasone 5 mg/kg, BALF day 32
Procedure: The investigation was conducted on the same mouse model as described in Example 1. In details, BALB/c mice received systemic immunization by subcutaneous injection of 20 μg of chicken egg ovalbumin (OVA grade V, >98% pure; Sigma, St Louis, Mo.) in saline, emulsified in 75 μL CFA (Sigma-Aldrich) at day 0. From day 28 after first immunization to day 31, mice were treated with PBS (vehicle), D[…], dexamethasone or D[…]/dexamethasone as described below, and 60 minutes later exposed to aerosolized ovalbumin (1% in saline) for 20 minutes per day. D[…] was administered orally by gavage twice a day so that one of the administrations was always 60 min before the OVA challenge. D[…] was diluted in saline 0.9% only at the time of use at room temperature and used at the dose of 10 mg/kg via the oral route. […] To assess leukocyte infiltration in the airways, bronchoalveolar lavage fluid (BALF) was performed. On day 32 after immunization, an incision was made in the trachea where a 1.7 mm outside diameter polyethylene catheter was inserted. Then, the airways were washed 2 times with 1 mL of phosphate buffer saline (PBS). The samples were centrifuged at 300×g for 10 minutes at 4° C., and 100 μL of 3% BSA in PBS was added to the pellet. A sample of this solution was used to assess the total leukocytes in the airways. The remaining solution was centrifuged at 300×g for 10 minutes at 4° C. and put on a histology glass slide to perform the differential counting of macrophages, lymphocytes, eosinophils and neutrophils using an optical microscopy. The supernatant was used to quantify the amount of total protein and the levels of chemokines and cytokines. The total protein assay was determined using a Bio-Rad protein assay Dye Reagent (Bio-Rad, USA) to measure possible protein leakage.

[2] = tested on: Th17 glucocorticoid-insensitive asthma mouse model; experiment: Lung histology (H&E), Example 2e; conditions: DF2755A 10 mg/kg oral twice a day, dexamethasone 5 mg/kg, FIG. 9
Procedure: After BALF, left lung was removed and fixed in formalin 4% in PBS (pH 7.4). The tissue was dehydrated gradually in ethanol, embedded in paraffin, cut into 4 μm sections and stained with Hematoxylin and Eosin. Photomicrographs were obtained at 400× magnification and were analyzed using the software Image Pro Plus (Image-Pro Plus 4.1, Media Cybernetics, USA).

[3] = tested on: Th17 glucocorticoid-insensitive asthma mouse model; experiment: Chemokine and cytokine analysis in lung (ELISA), Example 2b; conditions: DF2755A 10 mg/kg oral twice a day, dexamethasone 5 mg/kg, lung supernatant ELISA
Procedure: (§1) The investigation was conducted on the same mouse model as described in Example 1. In details, BALB/c mice received systemic immunization by subcutaneous injection of 20 μg of chicken egg ovalbumin (OVA grade V, >98% pure; Sigma, St Louis, Mo.) in saline, emulsified in 75 μL CFA (Sigma-Aldrich) at day 0.
(§2) From day 28 after first immunization to day 31, mice were treated with PBS (vehicle), DF2755A, dexamethasone or DF2755A/dexamethasone as described below, and 60 minutes later exposed to aerosolized ovalbumin (1% in saline) for 20 minutes per day. DF2755A was administered orally by gavage twice a day so that one of the administrations was always 60 min before the OVA challenge. DF2755A was diluted in saline 0.9% only at the time of use at room temperature and used at the dose of 10 mg/kg via the oral route. Dexamethasone was diluted in saline 0.9% only at the time of use at room temperature and given at the dose of 5 mg/kg.
After BALF, the right lung was removed and a sample of 100 mg was homogenized in 1 mL of PBS (0.4 M NaCl and 10 mM of NaPO4) containing anti-proteases (0.1 mM phenylmethylsulfonyl fluoride, 0.1 mM benzetonium chloride, 10 mM EDTA and 20 KI aprotinin A). The homogenate was centrifuged 8,000×g for 10 minutes at 4° C. The supernatant was frozen for further ELISA assay and the pellet was frozen/thawed three times using liquid nitrogen to assess neutrophil myeloperoxidase (MPO) and eosinophil peroxidase (EPO) activities.
The chemokines CXCL1/KC, CCL2/MCP-1 and CCL24/Eotaxin2, and cytokines TNF-α, IFN-γ and IL-17A levels in supernatant of lung tissue were measured by ELISA. Results were expressed as levels of cytokines (pg/mL or ng/mL) per 0.1 g of wet tissue/mL of extraction buffer.

[4] = tested on: Th17 glucocorticoid-insensitive asthma mouse model; experiment: Neutrophil myeloperoxidase and eosinophil peroxidase activity assays in lung, Example 2c; conditions: DF2755A 10 mg/kg oral twice a day, dexamethasone 5 mg/kg
Procedure: From day 28 after first immunization to day 31, mice were treated with PBS (vehicle), DF2755A, dexamethasone or DF2755A/dexamethasone as described below, and 60 minutes later exposed to aerosolized ovalbumin (1% in saline) for 20 minutes per day. DF2755A was administered orally by gavage twice a day so that one of the administrations was always 60 min before the OVA challenge. DF2755A was diluted in saline 0.9% only at the time of use at room temperature and used at the dose of 10 mg/kg via the oral route. Dexamethasone was diluted in saline 0.9% only at the time of use at room temperature and given at the dose of 5 mg/kg. […]
The neutrophil myeloperoxidase (MPO) and eosinophil peroxidase (EPO) activities were measured as follows. […] The reaction was stopped by adding 100 μL of H2SO4 and quantified at 450 nm wave lengths in a spectrophotometer (VERSAmax, Molecular Devices, CA). […] After 30 minutes of incubation at room temperature, the reaction was stopped by adding 50 μL of H2SO4 1M and quantified at 492 nm in spectrophotometer.

[5] = tested on: Th17 glucocorticoid-insensitive asthma mouse model; experiment: Assessment of pulmonary mechanics, Example 2d; conditions: DF2755A 10 mg/kg oral twice a day, dexamethasone 5 mg/kg; 24 h after the last challenge; FIG. 8
Procedure: as §1, §2
(§3) Mice were anesthetized with a subcutaneous injection of ketamine and xylazine (130 mg/Kg ketamine and 8.5 mg/Kg xylazine) to maintain spontaneous breathing under anesthesia. […] Under mechanical respiration the Dynamic Compliance (Cdyn) and Lung Resistance (RI) were determined by Resistance and Compliance RC test. […]

[6] = tested on: Th17 glucocorticoid-insensitive asthma mouse model; experiment: Leukocytes and protein leakage in airways (BALF), Example 1a; conditions: day 28-31, OVA aerosol
Procedure: (§4) The investigation was conducted by using a Th17 glucocorticoid-insensitive asthma mouse model previously described (Campa C C et al., Nat Commun (2018), v. 9, p. 5232 and Dejager Let al., Mucosal Immunol (2015), v. 8, p 1212-25).
(§5) In details, BALB/c mice received systemic immunization by subcutaneous injection of 20 μg of chicken egg ovalbumin (OVA grade V, >98% pure; Sigma, St Louis, Mo.) in saline, emulsified in 75 μL CFA (Sigma-Aldrich) at day 0.
(§6) From day 28 after first immunization to day 31, mice were treated with PBS (vehicle), ladarixin, dexamethasone or ladarixin/dexamethasone as described below, and 60 minutes later exposed to aerosolized ovalbumin (1% in saline) for 20 minutes per day. Ladarixin was administered orally by gavage (10 mg/Kg in saline 0.9%), as previously described (Bertini et al., Br J Pharmacol (2012), v. 165, p. 436-54), once a day. Dexamethasone was administered subcutaneously (5 mg/Kg in saline), once a day.
An assessment of total leukocytes content in airways was carried out by performing bronchoalveolar lavage fluid (BALF) as previously described (Russo et al Am J Respir Cell Mol Biol (2009), v. 40, p. 410-21; Campa C C et al., Nat Commun (2018), v. 9, p. 5232). Briefly, an incision was made in the trachea where a 1.7 mm outside diameter polyethylene catheter was inserted. Then, the airways were washed 2 times with 1 mL of phosphate buffer saline (PBS). The samples were centrifuged at 300×g for 10 minutes at 4° C., the pellet was collected, resuspended in 100 μL of 3% BSA in PBS and a sample from this solution was used to assess the total leukocytes in the airways. The remaining was centrifuged at 300×g for 10 minutes at 4° C. on a histology glass slide to assess differential counting of macrophages, lymphocytes, eosinophils and neutrophils using an optical microscopy. Total protein was quantified in the BALF supernatant using a Bio-Rad protein assay Dye Reagent (Bio-Rad, USA) to measure possible protein leakage as previously described (Campa C C et al., Nat Commun (2018), v. 9, p. 5232).

[7] = tested on: Th17 glucocorticoid-insensitive asthma mouse model; experiment: Histological analysis of lung, pulmonary inflammation score, Example 1d; conditions: ladarixin 10 mg/Kg oral, dexamethasone 5 mg/Kg s.c.; six grade scale 0-5; FIG. 4D, FIG. 3
Procedure: In details, BALB/c mice received systemic immunization by subcutaneous injection of 20 μg of chicken egg ovalbumin (OVA grade V, >98% pure; Sigma, St Louis, Mo.) in saline, emulsified in 75 μL CFA (Sigma-Aldrich) at day 0. […]
Semiquantitative histopathology analyses were performed as described (Campa C C et al., Nat Commun (2018), v. 9, p. 5232). Briefly, ten random images per lung were acquired at 200× and pulmonary inflammation score was recorded according to a six grade scale where “0” corresponded to less than 1% of lung tissue area inflamed, “1” where up to 9% of lung area was affected by inflammation, “2” when 10% to 29% of lung tissue area was affected, “3” if 30% to 49% of lung tissue area was affected, “4” if 50% to 69% of lung tissue area was affected and “5” if more than 70% of the lung tissue area was affected by inflammation.
After BALF, left lung was removed and fixed in formalin 4% in PBS (pH 7.4), as previously described. […] Photomicrographs were obtained at 400× magnification and were analyzed using the software Image Pro Plus (Image-Pro Plus 4.1, Media Cybernetics, USA) under light microscopy. […]

[8] = tested on: Th17 glucocorticoid-insensitive asthma mouse model; experiment: Cytokines quantification in lung tissue (ELISA), Example 1b; conditions: ladarixin 10 mg/Kg oral, dexamethasone 5 mg/Kg s.c., lung lysate ELISA
Procedure: as §4, §5, §6
The levels of IL17A and TNF-α were also measured in the different experimental mice groups. […] Levels of IL-17A and TNF-α were measured by ELISA using commercial DuoSet kits from R&D Systems, according to the instructions of the manufacturer. Results, shown in FIG. 2, are expressed as pg of cytokines per ml of lung lysate (pg/ml).

[9] = tested on: Th17 glucocorticoid-insensitive asthma mouse model; experiment: Assessment of pulmonary mechanics, Example 1e; conditions: ladarixin 10 mg/Kg oral, dexamethasone 5 mg/Kg s.c.; FIG. 5B
Procedure: as §4, §5, §6
as §3, with “Mice form different experimental groups” for “Mice”

[10] = tested on: Th17 glucocorticoid-insensitive asthma mouse model; experiment: Neutrophil peroxidase activity (MPO) in lung tissue, Example 1c; conditions: ladarixin 10 mg/Kg oral, dexamethasone 5 mg/Kg s.c.; after OVA exposure; FIG. 4A
Procedure: MPO assay was performed on the lung tissue in the different experimental mice groups. In details, MPO assay was performed in a 96-well microplate by adding, in each well, 25 μL of 3,3′-5,5′-tetramethylbenzidine (TMB Sigma) diluted in dimethyl sulfoxide (DMSO; Merck, Darmstadt, Germany) at a final concentration of 1.6 mM; 100 μL of H2O2 0.02% vol/vol in PBS (pH 5.4) containing HTAB and 25 μL of processed tissue supernatant. The reaction started, at 37° C., by adding the TMB solution and the supernatant to the microplate and, after 5 min, H2O2 was added followed by a new incubation at 37° C. for 5 min. The reaction was stopped by adding 100 μL of H2SO4 1M and quantified at 450 nm wavelengths in a spectrophotometer (VERSA max, Molecular Devices, CA).

Compound: C[C@H](C(=O)O)c1ccc(Nc2nc(C(F)(F)F)cs2)cc1 [DF2755A, (2S)-2-(4-{[4-(trifluoromethyl)-1,3-thiazol-2-yl]amino}phenyl) propanoic acid]
- neutrophil influx into the airways (BALF) ([1]; day 28-31, FIG. 6B): able to reduce
- eosinophil influx into the airways (BALF) ([1]; FIG. 6C): able to reduce
- lymphocytes influx into the airways (BALF) ([1]; FIG. 6E): able to reduce
- lung inflammation, accumulation of leukocytes in the lung tissue (histology, inflammatory score) [2]: effective in reducing accumulation of leukocytes
- CXCL1 level in the lungs ([3]; FIG. 7A): significantly reduced
- CCL2 level in the lungs ([3]; FIG. 7B): significantly reduced
- CCL24 level in the lungs ([3]; FIG. 7C): significantly reduced
- IFN-γ level in the lungs ([3]; FIG. 7D): not significant
- IL-17 level in the lungs ([3]; FIG. 7E): significantly reduced
- TNF-α level in the lungs ([3]; FIG. 7F): significantly reduced
- accumulation of neutrophils in the lungs (MPO activity) ([4]; FIG. 6F): prevented the infiltration
- infiltration of eosinophils in the lungs (EPO activity) ([4]; FIG. 6G): prevented the infiltration
- pulmonary function / pulmonary mechanics (pulmonary volumes and resistance) [5]: did not significantly increased pulmonary function

Compound: C[C@@H](C(=O)NS(C)(=O)=O)c1ccc(OS(=O)(=O)C(F)(F)F)cc1 [ladarixin]
- total leukocyte influx into alveolar space (BALF) ([6]; ladarixin 10 mg/Kg oral once a day, dexamethasone 5 mg/Kg s.c. once a day, FIG. 1A): reduces total leukocyte influx
- macrophages infiltrated into airways (BALF) ([6]; ladarixin 10 mg/Kg oral, dexamethasone 5 mg/Kg s.c., FIG. 1B): marked reduction
- neutrophils infiltrated into airways (BALF) ([6]; ladarixin 10 mg/Kg oral, dexamethasone 5 mg/Kg s.c., FIG. 1C): marked reduction
- eosinophil recruitment into the airways (BALF) ([6]; ladarixin 10 mg/Kg oral, dexamethasone 5 mg/Kg s.c., FIG. 1D): increased
- pulmonary inflammation score (lung histology) [7]: effective in reducing inflammation
- TNF-α level in lung parenchyma ([8]; FIG. 2A): significantly decreased
- IL-17A level in lung parenchyma ([8]; FIG. 2B): significantly decreased
- airway hyperreactivity evoked by methacholine (ΔRI) [9]: able to reduce airway hyperreactivity
- neutrophil accumulation in lung parenchyma (MPO activity) [10]: able to prevent the neutrophil accumulation
